From patent publication US12590062B2, “PD-1/PD-L1 inhibitors” (Gilead Sciences, Inc., priority 2017, dated 2026)

Tests used:
PD-1/PD-L1 = PD-1/PD-L1 (Homo sapiens, UniProt Q9NZQ7); assay: PD-1/PD-L1 biochemical protein-protein interaction assay (ALPHA); assay type: binding; conditions: 0.3 nM His tagged PD-L1, 2.5 nM biotinylated Fc-PD-1, 60 minutes at 25° C., read-out: IC50 PD-L1-PD-1 Alpha IC50-mono PD-L1-fcP-D1
Summary of the method: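 IC50 values derive from four-parameter fits of ALPHA signal decrease. Assay: 0.3 nM His-tagged PD-L1 with 2.5 nM biotinylated Fc-PD-1, Hepes pH 7.4 with 0.005% Tween 20 and 0.01% BSA, 60 min at 25° C, then anti-His acceptor and streptavidin donor beads.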

PD-1/PD-L1 interaction = biological target: T1, PD-1/PD-L1 interaction (Homo sapiens, UniProt Q9NZQ7); assay: PD-1/PD-L1 NFAT reporter co-culture assay; assay type: cell-based; conditions: Jurkat PD-1 NFAT-luciferase cells co-cultured with aAPC-PD-L1 CHO cells, 6 hrs at 37° C.; read-out: EC50 NFAT Luciferase
T1 construct: expressed in transfected cells; host or cells: CHO cells (aAPC-PD-L1) co-cultured with Jurkat cells overexpressing PD-1 and an NFAT-luciferase reporter
T1 sequence (Q9NZQ7 19-290): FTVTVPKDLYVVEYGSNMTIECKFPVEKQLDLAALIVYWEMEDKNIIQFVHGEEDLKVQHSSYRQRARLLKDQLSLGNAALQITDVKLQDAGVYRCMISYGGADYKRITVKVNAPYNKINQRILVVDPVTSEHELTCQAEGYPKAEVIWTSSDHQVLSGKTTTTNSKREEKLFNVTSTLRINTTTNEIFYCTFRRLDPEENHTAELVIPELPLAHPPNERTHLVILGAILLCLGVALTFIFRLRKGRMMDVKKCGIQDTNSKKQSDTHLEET
Summary of the method: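 Restoration of TCR-driven NFAT luciferase signal: 6 h, 37 °C co-culture of PD-1 Jurkat reporter cells (pre-mixed with compound) on overnight-seeded PD-L1/anti-CD3 CHO monolayer. ONE-Glo luminescence; dose-response fitted to four-parameter equation for EC50.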

Sequence of PD-1/PD-L1 (Q9NZQ7 19-238 limits assumed): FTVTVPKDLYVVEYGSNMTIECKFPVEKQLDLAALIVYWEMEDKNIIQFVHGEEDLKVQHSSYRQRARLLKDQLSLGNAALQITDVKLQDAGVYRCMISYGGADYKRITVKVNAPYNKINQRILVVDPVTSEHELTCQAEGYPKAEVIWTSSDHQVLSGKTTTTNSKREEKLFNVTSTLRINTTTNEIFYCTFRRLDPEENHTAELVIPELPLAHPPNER

IC50 (PD-1/PD-L1) | EC50 (PD-1/PD-L1 interaction) | SMILES
0.6 nM | 3200 nM | COc1nc(OCc2cccc(-c3cccc(COc4ccc(CNC[C@@H](O)CC(=O)O)c(OC)n4)c3Cl)c2Cl)ccc1CNC[C@@H](O)CC(=O)O [Example 187, (3S,3′S)-4,4′-((((((2,2′-Dichloro-[1,1′-biphenyl]-3,3′-diyl)bis(methylene))bis(oxy))bis(2-methoxypyridine-6,3-diyl))bis(methylene))bis(azanediyl))bis(3-hydroxybutanoic acid)]
1.5 nM | 8620 nM | Cc1c(COc2cc(OCc3nccs3)c(CNC[C@@H](O)CC(=O)O)cc2Cl)cccc1-c1cccc(COc2cc(OCc3nccs3)c(CNC[C@@H](O)CC(=O)O)cc2Cl)c1C [Example 262, (3S,3′S)-4,4′-((((((2,2′-dimethyl-[1,1′-biphenyl]-3,3′-diyl)bis(methylene))bis(oxy))bis(5-chloro-2-(thiazol-2-ylmethoxy)-4,1-phenylene))bis(methylene))bis(azanediyl))bis(3-hydroxybutanoic acid)]
1.5 nM | 274 nM | Cc1c(COc2cc(OCc3cccc(C#N)n3)c(CNC[C@@H](O)CC(=O)O)cc2Cl)cccc1-c1cccc(COc2cc(OCc3cccc(C#N)n3)c(CNC[C@@H](O)CC(=O)O)cc2Cl)c1C [Example 221, (3S,3′S)-4,4′-((((((2,2′-dimethyl-[1,1′-biphenyl]-3,3′-diyl)bis(methylene))bis(oxy))bis(5-chloro-2-((6-cyanopyridin-2-yl)methoxy)-4,1-phenylene))bis(methylene))bis(azanediyl))bis(3-hydroxybutanoic acid)]
0.091 nM | 434 nM | CNC(=O)COc1nc(O[C@H]2CCc3c(-c4cccc(-c5ccc(OCCNC[C@@H](O)CC(=O)O)cc5)c4C)cccc32)c(Br)cc1CNC[C@@H](O)CC(=O)O [Example 754]
0.1 nM | 20600 nM | Cc1c(COc2ccc(CNC[C@@H](O)CC(=O)O)cc2C#N)cccc1-c1cccc(COc2ccc(CNC[C@@H](O)CC(=O)O)cc2C#N)c1C [Example 177, (3S,3′S)-4,4′-((((((2,2′-dimethyl-[1,1′-biphenyl]-3,3′-diyl)bis(methylene))bis(oxy))bis(3-cyano-4,1-phenylene))bis(methylene))bis(azanediyl))bis(3-hydroxybutanoic acid)]
0.9 nM | 10000 nM | COc1nc(OCc2cccc(-c3cccc(COc4ccc(CNCC(O)C(F)(F)C(=O)O)c(OC)n4)c3C)c2C)ccc1CNCC(O)C(F)(F)C(=O)O (centres unmarked) [Example 84, 4,4′-((((((2,2′-dimethyl-[1,1′-biphenyl]-3,3′-diyl)bis(methylene))bis(oxy))bis(2-methoxypyridine-6,3-diyl))bis(methylene))bis(azanediyl))bis(2,2-difluoro-3-hydroxybutanoic acid)]
0.242 nM | 1250 nM | Cc1c(COc2cc(OCc3cncc(C#N)c3)c(CNC[C@@H](O)CC(=O)O)cc2Cl)cccc1-c1cccc(-c2ccc(OCCNC[C@@H](O)CC(=O)O)cc2Cl)c1C [Example 315, (S)-4-((4-((4″-(2-(((S)-3-carboxy-2-hydroxypropyl)amino)ethoxy)-2″-chloro-2,2′-dimethyl-[1,1′:3′,1″-terphenyl]-3-yl)methoxy)-5-chloro-2-((5-cyanopyridin-3-yl)methoxy)benzyl)amino)-3-hydroxybutanoic acid]
3.6 nM | ≥ 50000 nM | Cc1c(COc2nc(OCC3CC3)c(CNC[C@@H](O)CC(=O)O)cc2Br)cccc1-c1cccc(COc2nc(OCC3CC3)c(CNC[C@@H](O)CC(=O)O)cc2Br)c1C [Example 141, (3S,3′S)-4,4′-((((((2,2′-dimethyl-[1,1′-biphenyl]-3,3′-diyl)bis(methylene))bis(oxy))bis(5-bromo-2-(cyclopropylmethoxy)pyridine-6,3-diyl))bis(methylene))bis(azanediyl))bis(3-hydroxybutanoic acid)]
1.16 nM | 6590 nM | CNC(=O)COc1nc(O[C@H]2CCc3c(-c4cccc(-c5ccc(OCCNC[C@@H](O)CC(=O)O)cc5)c4C)cccc32)ccc1CNC[C@@H](O)CC(=O)O [Example 756]

Second part, the compound before the results:

SMILES | IC50 (PD-1/PD-L1) | EC50 (PD-1/PD-L1 interaction)
Cc1c(COc2cc(OCc3cncc(C#N)c3)c(CN3CC[C@@H]3CO)cc2Br)cccc1-c1cccc(COc2cc(OCc3cncc(C#N)c3)c(CN3CC[C@@H]3CO)cc2Br)c1C [Example 258, 5,5′-((((((2,2′-dimethyl-[1,1′-biphenyl]-3,3′-diyl)bis(methylene))bis(oxy))bis(4-bromo-6-(((R)-2-(hydroxymethyl)azetidin-1-yl)methyl)-3,1-phenylene))bis(oxy))bis(methylene))dinicotinonitrile] | 6.3 nM | 419 nM
Cc1c(COc2cc(OCc3cncc(C#N)c3)c(CNCc3ncc[nH]3)cc2Br)cccc1-c1cccc(COc2cc(OCc3cncc(C#N)c3)c(CNCc3ncc[nH]3)cc2Br)c1C [Example 261, 5,5′-((((((2,2′-dimethyl-[1,1′-biphenyl]-3,3′-diyl)bis(methylene))bis(oxy))bis(6-((((1H-imidazol-2-yl)methyl)amino)methyl)-4-bromo-3,1-phenylene))bis(oxy))bis(methylene))dinicotinonitrile] | 120 nM | 3170 nM
Cc1c(COc2cc(OCc3cncc(C#N)c3)c(CNCCO)cc2Cl)cccc1-c1cccc(COc2cc(OCC3CC3)c(CNCCO)cc2Cl)c1C [Example 199, 5-((4-Chloro-5-((3′-((2-chloro-5-(cyclopropylmethoxy)-4-(((2-hydroxyethyl)amino)methyl)phenoxy)methyl)-2,2′-dimethyl-[1,1′-biphenyl]-3-yl)methoxy)-2-(((2-hydroxyethyl)amino)methyl)phenoxy)methyl)nicotinonitrile] | 188 nM | 2150 nM
COc1nc(OCc2cccc(-c3cccc(COc4ccc(CNCCNC(C)=O)c(OC)n4)c3C)c2C)ccc1CNCCNC(C)=O [Example 18, N,N′-(((((((2,2′-dimethyl-[1,1′-biphenyl]-3,3′-diyl)bis(methylene))bis(oxy))bis(2-methoxypyridine-6,3-diyl))bis(methylene))bis(azanediyl))bis(ethane-2,1-diyl))diacetamide] | 16.2 nM | ≥ 50000 nM
Cc1c(COc2nc(OCc3ccc(N4CCOCC4)nc3)c(CNC[C@@H](O)CC(=O)O)cc2Br)cccc1-c1cccc(COc2nc(OCc3ccc(N4CCOCC4)nc3)c(CNC[C@@H](O)CC(=O)O)cc2Br)c1C [Example 269, (3S,3′S)-4,4′-((((((2,2′-dimethyl-[1,1′-biphenyl]-3,3′-diyl)bis(methylene))bis(oxy))bis(5-bromo-2-((6-morpholinopyridin-3-yl)methoxy)pyridine-6,3-diyl))bis(methylene))bis(azanediyl))bis(3-hydroxybutanoic acid)] | 12.3 nM | ≥ 50000 nM
Cc1c(COc2cc(OCc3cncc(C#N)c3)c(CN[C@@](C)(CO)C(=O)O)cc2Cl)cccc1-c1cccc(-c2ccc3c(c2)CC[C@H]3N(C)C)c1C [Example 378, (S)-2-((5-chloro-2-((5-cyanopyridin-3-yl)methoxy)-4-((3′-((R)-1-(dimethylamino)-2,3-dihydro-1H-inden-5-yl)-2,2′-dimethyl-[1,1′-biphenyl]-3-yl)methoxy)benzyl)amino)-3-hydroxy-2-methylpropanoic acid] | 0.127 nM | 191 nM
COc1nc(OCc2cccc(-c3cccc(COc4nc(OC)c(CN5CC[C@H]5C(=O)O)cc4Br)c3C)c2C)c(Br)cc1CN1CC[C@H]1C(=O)O [Example 59, (2S,2′S)-1,1′-(((((2,2′-dimethyl-[1,1′-biphenyl]-3,3′-diyl)bis(methylene))bis(oxy))bis(5-bromo-2-methoxypyridine-6,3-diyl))bis(methylene))bis(azetidine-2-carboxylic acid)] | 0.1 nM | 1250 nM
Cc1cc(OCc2cccc(-c3cccc(COc4cc(C)c(CNC[C@@H](O)CC(=O)O)c(OCc5cncc(C#N)c5)c4)c3C)c2C)cc(OCc2cncc(C#N)c2)c1CNC[C@@H](O)CC(=O)O [Example 246, (3S,3′S)-4,4′-((((((2,2′-dimethyl-[1,1′-biphenyl]-3,3′-diyl)bis(methylene))bis(oxy))bis(2-((5-cyanopyridin-3-yl)methoxy)-6-methyl-4,1-phenylene))bis(methylene))bis(azanediyl))bis(3-hydroxybutanoic acid)] | 1 nM | 1200 nM
Cc1c(COc2cc(OCc3cncc(C#N)c3)c(CNC[C@@H](O)CC(=O)O)cc2Br)cccc1-c1cccc(COc2cc(OCc3cncc(C#N)c3)c(CN3C[C@@H](O)CC3=O)cc2Br)c1C [Example 38, (S)-4-((5-bromo-4-((3′-((2-bromo-5-((5-cyanopyridin-3-yl)methoxy)-4-(((S)-4-hydroxy-2-oxopyrrolidin-1-yl)methyl)phenoxy)methyl)-2,2′-dimethyl-[1,1′-biphenyl]-3-yl)methoxy)-2-((5-cyanopyridin-3-yl)methoxy)benzyl)amino)-3-hydroxybutanoic acid] | 2.8 nM | 2670 nM
Cc1c(COc2nc(OCc3cnnn3Cc3ccccc3)c(CNC[C@@H](O)CC(=O)O)cc2Br)cccc1-c1cccc(COc2nc(OCc3cnnn3Cc3ccccc3)c(CNC[C@@H](O)CC(=O)O)cc2Br)c1C [Example 139, (3S,3′S)-4,4′-((((((2,2′-dimethyl-[1,1′-biphenyl]-3,3′-diyl)bis(methylene))bis(oxy))bis(2-((1-benzyl-1H-1,2,3-triazol-5-yl)methoxy)-5-bromopyridine-6,3-diyl))bis(methylene))bis(azanediyl))bis(3-hydroxybutanoic acid)] | 5.1 nM | 23900 nM
